According to KR20180087157A, “Blt 저해 활성을 갖는 화합물을 유효성분으로 포함하는 만성 폐쇄성 폐질환 예방 또는 치료용 약학적 조성물” (동국대학교 산학협력단, priority 2017, dated 2018):
pIC50: −log10 of the molar value.

What was measured:
[1] = tested on: BLT2-expressing cells [BLT2가 발현된 세포 (CHO-BLT2 cells)]; assay: LTB4-induced BLT2-dependent chemotactic motility (Transwell), CHO-BLT2; type: cell-based, human; conditions: for inhibition of chemotaxis: LTB4-stimulated CHO-BLT2 cells, result in words; for pIC50: read-out: IC50 (50% inhibitory concentration), chemotaxis, CHO-BLT2 cells, LTB4-induced, serum-free; for inhibition at 10 µM: 10 μM pretreatment, compared with LTB4 (300 nM) treatment (DMSO+), read-out: chemotaxis inhibition
[2] = tested on: BLT1-expressing cells [BLT1이 발현된 세포 (CHO-BLT1)]; assay: LTB4-induced chemotactic motility (Transwell), CHO-BLT1; type: cell-based
[3] = tested on: BLT2-expressing cells [BLT2가 발현된 세포 (CHO-BLT2 cells)]; assay: LPA-induced chemotactic motility (Transwell), CHO-BLT2; type: cell-based, human
[4] = tested on: BLT2-expressing cells [BLT2가 발현된 세포 (CHO-BLT2 cells)]; assay: Growth inhibition of BLT2-expressing cells (MTT cell viability); type: cell-based; conditions: for inhibition at 10 µM: 10 μM pretreatment 1 h, then LTB4 300 nM, 24 h, read-out: growth inhibition effect; for inhibition of BLT2-induced cell proliferation: 10 μM, LTB4 300 nM, result in words
neutrophil elastase (NE) = assay: NE measurement in BALF, cigarette smoke and LPS induced COPD mice; type: in vivo, mouse; conditions: C57BL/6N mice, oral 1 h before smoke, result in words
[5] = tested on: inflammatory cells (neutrophils) [염증세포(호중구)]; assay: Inflammatory cell infiltration in BALF, cigarette smoke and LPS induced COPD mice; type: in vivo, mouse; conditions: C57BL/6N mice, oral 1 h before smoke, result in words
IL-6 = IL-6 measurement in BALF, cigarette smoke and LPS induced COPD mice; type: in vivo, mouse; conditions: C57BL/6N mice, oral 1 h before smoke, result in words
[6] = tested on: reactive oxygen species (ROS); assay: ROS measurement in BALF, cigarette smoke and LPS induced COPD mice; type: in vivo, mouse; conditions: C57BL/6N mice, oral 1 h before smoke, result in words
[7] = tested on: cigarette smoke and lipopolysaccharide induced chronic obstructive pulmonary disease animal model [담배연기 및 지질다당류로 유발된 만성 폐쇄성 폐질환 동물 모델]; assay: H&E staining of lung tissue, cigarette smoke and LPS induced COPD mice; type: in vivo, mouse; conditions: C57BL/6N mice; for improvement of lung inflammation: cigarette smoke + LPS COPD model, overall result in words; for infiltration of inflammatory cells (H&E): cigarette smoke + LPS, 10 or 20 mg/kg oral, lung tissue, compared with COPD group, result in words
TNF-α = TNF-α measurement in BALF, cigarette smoke and LPS induced COPD mice; type: in vivo, mouse; conditions: C57BL/6N mice, oral 1 h before smoke, result in words
[8] = 10 μM pretreatment, compared with LTB4 (10 nM) treatment (DMSO+), result in words

SMILES: CCCCC(=O)N(Cc1ccc(-c2ccc(OCC(=O)O)cc2)cc1)c1cccc(F)c1 [AC-1074, 2-(4'-((N-(3-fluorophenyl)pentanamido)methyl)biphenyl-4-yloxy)acetic acid]
- inhibition of chemotaxis [1]: 현저히 저해
- change in chemotaxis [2, 8]: 변화가 없음
- change in chemotaxis ([3]; 10 μM pretreatment, compared with LPA (100 nM) treatment (DMSO+), result in words): 변화가 없음

SMILES: CCCCC(=O)N(Cc1ccc(-c2ccc(O)cc2)cc1)c1cccc(Br)c1 [AC-1632, N-(3-bromophenyl)-N-((4'-hydroxybiphenyl-4-yl)methyl)pentanamide]
- inhibition at 10 µM [4]: 78.7%
- inhibition of BLT2-induced cell proliferation [4]: 매우 우수한 효율로 억제

SMILES: CCCCC(=O)N(Cc1ccc(-c2ccc(O)cc2)cc1)c1cccc(C(F)(F)F)c1 [AC-1635, N-((4'-hydroxybiphenyl-4-yl)methyl)-N-(3-(trifluoromethyl)phenyl)pentanamide]
- inhibition at 10 µM [4]: 71.6%
- inhibition of BLT2-induced cell proliferation [4]: 매우 우수한 효율로 억제

SMILES: COc1ccc(-c2ccc(CN(C(C)=O)c3cccc(F)c3)cc2)cc1 [AC-1646, N-(3-fluorophenyl)-N-((4'-methoxybiphenyl-4-yl)methyl)acetamide]
- inhibition at 10 µM [4]: 72.1%
- inhibition of BLT2-induced cell proliferation [4]: 매우 우수한 효율로 억제

SMILES: CCCCC(=O)N(Cc1ccc(-c2ccc(C(=O)N3CCN(C(C)C)CC3)cc2)cc1)c1ccc(F)cc1 [AC-1650, N-(4-fluorophenyl)-N-((4'-(4-isopropylpiperazine-1-carbonyl)biphenyl-4-yl)methyl)pentanamide]
- inhibition at 10 µM [4]: 82.2%
- inhibition of BLT2-induced cell proliferation [4]: 매우 우수한 효율로 억제

SMILES: CCCCC(=O)N(CC#Cc1ccc(C(=O)N2CCN(C)CC2)cc1)c1ccccc1 [LMT-692, N-(3-(4-(4-methylpiperazine-1-carbonyl)phenyl)prop-2-ynyl)-N-phenylpentanamide]
- pIC50 ([1]; Homo sapiens): 5.12
- inhibition at 10 µM ([1]; Homo sapiens): 66%
- inhibition of chemotaxis [1]: 현저히 저해
- inhibition of BLT2-induced cell proliferation [4]: 매우 우수한 효율로 억제
- chemotaxis inhibition [2, 8]: 억제되지 않음

SMILES: CCCCC(=O)N(CC#Cc1ccc(C(=O)N2CCNCC2)cc1)c1ccccc1 [LMT-694, N-phenyl-N-(3-(4-(piperazine-1-carbonyl)phenyl)prop-2-ynyl)pentanamide]
- inhibition at 10 µM ([1]; Homo sapiens): 90%
- chemotaxis inhibition [2, 8]: 억제되지 않음

SMILES: CCCCC(=O)N(CC#Cc1ccc(C(=O)N2CCN(C(C)C)CC2)cc1)c1ccccc1 [LMT-696, N-(3-(4-(4-isopropylpiperazine-1-carbonyl)phenyl)prop-2-ynyl)-N-phenylpentanamide]
- pIC50 ([1]; Homo sapiens): 5.70
- inhibition at 10 µM ([1]; Homo sapiens): 70.3%
- inhibition of chemotaxis [1]: 현저히 저해
- inhibition of BLT2-induced cell proliferation [4]: 매우 우수한 효율로 억제
- chemotaxis inhibition [2, 8]: 억제되지 않음

SMILES: CCCCC(=O)N(CC#Cc1cccc(C(=O)N2CCNCC2)c1)c1ccccc1 [LMT-837, N-phenyl-N-(3-(3-(piperazine-1-carbonyl)phenyl)prop-2-ynyl)pentanamide]
- inhibition at 10 µM [4]: 65%
- inhibition of BLT2-induced cell proliferation [4]: 매우 우수한 효율로 억제

SMILES: CCCCC(=O)N(CC#Cc1ccc(C(=O)N2CCN(C(C)C)CC2)cc1)c1ccc(F)cc1 [LMT-841, N-(4-fluorophenyl)-N-(3-(4-(4-isopropylpiperazine-1-carbonyl)phenyl)prop-2-ynyl)pentanamide]
- inhibition at 10 µM [4]: 60%
- inhibition of BLT2-induced cell proliferation [4]: 매우 우수한 효율로 억제

SMILES: CCCCC(=O)N(CC#Cc1cccc(C(=O)N2CCN(C(C)C)CC2)c1)c1ccccc1 [LMT-842, N-(3-(3-(4-isopropylpiperazine-1-carbonyl)phenyl)prop-2-ynyl)-N-phenylpentanamide]
- inhibition at 10 µM [4]: 70%
- inhibition of BLT2-induced cell proliferation [4]: 매우 우수한 효율로 억제

SMILES: CCCCC(=O)N(CC#Cc1ccc(C(=O)N(CC)CC)cc1)c1ccccc1 [LMT-883, N,N-diethyl-4-(3-(N-phenylpentanamido)prop-1-ynyl)benzamide]
- inhibition at 10 µM [4]: 99%
- inhibition of BLT2-induced cell proliferation [4]: 매우 우수한 효율로 억제

SMILES: CCCCC(=O)N(CC#Cc1ccc(C(=O)N2CCN(C(C)C)CC2)cc1)c1cccc(F)c1 [LMT-886, N-(3-fluorophenyl)-N-(3-(4-(4-isopropylpiperazine-1-carbonyl)phenyl)prop-2-ynyl)pentanamide]
- NE production (neutrophil elastase (NE)): 유의적으로 감소
- inhibition at 10 µM [4]: 99%
- inhibition of BLT2-induced cell proliferation [4]: 매우 우수한 효율로 억제
- infiltration of inflammatory cells (neutrophils) [5]: 유의적으로 감소
- IL-6 production (IL-6): 현저히 감소
- ROS production [6]: 유의적으로 감소
- improvement of lung inflammation [7]: 폐의 염증을 개선하는 효능
- infiltration of inflammatory cells (H&E) [7]: 감소
- TNF-α production (TNF-α): 현저히 감소

SMILES: CCCCC(=O)N(CC#Cc1ccc(C(=O)O)cc1)c1ccccc1 [LMT-1013, 4-(3-(N-phenylpentanamido)prop-1-yn-1-yl)benzoic acid]
- pIC50 ([1]; Homo sapiens): 7.21
- inhibition of chemotaxis [1]: 현저히 저해
- NE production (neutrophil elastase (NE)): 유의적으로 감소
- inhibition of BLT2-induced cell proliferation [4]: 매우 우수한 효율로 억제
- infiltration of inflammatory cells (neutrophils) [5]: 유의적으로 감소
- IL-6 production (IL-6): 현저히 감소
- ROS production [6]: 유의적으로 감소
- improvement of lung inflammation [7]: 폐의 염증을 개선하는 효능
- infiltration of inflammatory cells (H&E) [7]: 감소
- pIC50 ([2]; read-out: IC50 (50% inhibitory concentration), chemotaxis, CHO-BLT1 cells, LTB4-induced, serum-free): ≤ 5.00
- TNF-α production (TNF-α): 현저히 감소

SMILES: CCCCC(=O)N(CC#Cc1ccc(C(=O)NCCN(C)C)cc1)c1ccccc1 [LMT-1016, N-(2-(dimethylamino)ethyl)-4-(3-(N-phenylpentanamido)prop-1-yn-1-yl)benzamide]
- inhibition at 10 µM [4]: 99%
- inhibition of BLT2-induced cell proliferation [4]: 매우 우수한 효율로 억제

SMILES: CCCCC(=O)N(CC#Cc1ccc(C(=O)NC(C)C(=O)OC)cc1)c1ccccc1 (centres unmarked) [LMT-1018, methyl 2-(4-(3-(N-phenylpentanamido)prop-1-yn-1-yl)benzamido)propanoate]
- inhibition at 10 µM [4]: 71.6%
- inhibition of BLT2-induced cell proliferation [4]: 매우 우수한 효율로 억제

SMILES: CCCCC(=O)N(CC#Cc1ccc(C(=O)NC(C)C(=O)O)cc1)c1ccccc1 (centres unmarked) [LMT-1019, 2-(4-(3-(N-phenylpentanamido)prop-1-yn-1-yl)benzamido)propanoic acid]
- inhibition at 10 µM [4]: 99%
- inhibition of BLT2-induced cell proliferation [4]: 매우 우수한 효율로 억제

SMILES: CCCCCCCC/C=C\CCCCCCCC(=O)OC[C@@H](O)COP(=O)(O)O [LPA, lysophosphatidic acid, reference compound]
- fold induction at 0.1 µM ([3]; Homo sapiens, 3 h, LPA 100 nM (DMSO+) compared with ethanol (DMSO-), read-out: increase in cell chemotaxis): 3.4

SMILES: CCCCC/C=C\C[C@@H](O)/C=C/C=C/C=C\[C@@H](O)CCCC(=O)O [LTB4, Leukotriene B4, reference compound]
- fold induction at 0.3 µM ([1]; Homo sapiens, 3 h, LTB4 300 nM (DMSO+) compared with ethanol (DMSO-), read-out: increase in cell chemotaxis): 2.4
- increase in cell chemotaxis ([1]; LTB4 300 nM (DMSO+) compared with ethanol (DMSO-), 180 min, 0.3 µM): 2.9 fold
- fold induction at 0.01 µM ([2]; 3 h, LTB4 10 nM (DMSO+) compared with ethanol (DMSO-), read-out: increase in cell chemotaxis): 2.2
- increase in cell chemotaxis ([2]; cho-blt1 cells, 3 h, 0.01 µM): 2.8 fold
